The target in test [1] is recombinant MNK2 (Homo sapiens (Human), UniProt Q9HBH9). In words: MNK Biochemical Enzymatic Assay (ADP-Glo kinase assay), MNK2. On the procedure:
Compounds are screened for MNK inhibition using the ADP-Glo kinase assay kit (Promega, catalogue No. V9101). All kinase reactions are performed in Reaction Buffer E (15 mM HEPES pH7.4, 20 mM NaCl, 1 mM EGTA, 10 mM MgCl2, 0.1 mg/ml BGG, and 0.02% Tween-20). […] Final DMSO concentration in each reaction is 1%.
(§1) Kinase reactions are carried out in 96-well half-area white flat-bottom polystyrene plates in a final volume of 25 μl. MNK1/2 enzymes are pre-incubated with compound and peptide substrate for 5 minutes prior to the addition of ATP. After the addition of ATP, kinase reactions are incubated at room temperature for 40 minutes. Reactions are subsequently stopped by the addition of 25 μl of ADP-Glo Reagent and incubating for an additional 40 minutes. The final luminescent signal used for kinase activity readout is produced by the addition of 45 μl of Kinase Detection Reagent (ADP-Glo kit, Promega) and incubating for 40 minutes. The luminescent signal is detected using a Victor 2 multilabel counter (Perkin Elmer) and the concentration of compound necessary to achieve inhibition of enzyme activity by 50% (IC50) is calculated using signals from an 8-point compound dilution series.

For test [2], the system named is Phosphorylated eIF4E. As to the kind of experiment: peIF4E Signaling Cellular Assay (CisBio peIF4E HTRF). It counts as cell-based. The following applies: cells incubated with compound for 2 hrs at 37° C. As for the experimental part: Phosphorylated eIF4E is assayed using the CisBio peIF4E HTRF® assay kit (CisBio, catalogue No. 64EF4PEG). Cells are plated in 96-well tissue-culture treated plate in appropriate growth medium (90 μL). Compounds (10×) are diluted using 3-fold serial dilutions in cell culture medium and added to cells. Plates are incubated for 2 hrs at 37° C. The cell supernatant is carefully removed either by aspirating supernatant or by flicking the plate. Immediately 50 μL of supplemented lysis buffer (IX) is added and incubated for at least 30 minutes at room temperature under shaking. After homogenization by pipetting up and down, 16 μL of cell lysate is transferred from the 96-well cell-culture plate to a 384-well small volume white plate, 4 μL of premixed antibody solutions (vol/vol) is prepared in the detection buffer and added. The plate is covered with a plate sealer and incubated overnight at room temperature. The fluorescence emissions at two different wavelengths are read (665 nm and 620 nm) on a Wallac Victor2. Emission ratios are converted into percent inhibitions and imported into GraphPad Prism software. […] IC50 values are determined using a nonlinear regression model available in GraphPad Prism 5.
To this end, IC50 values of less than 0.05 μM are labeled as “+++”, from 0.05 to 1.0 μM are labeled as “++”, greater than 1.0 to 100 μM are labeled as “+”, and NA means “not available”.

Test [3] has as its target recombinant MNK1 (Homo sapiens (Human), UniProt Q9BUB5). As to the kind of experiment: MNK Biochemical Enzymatic Assay (ADP-Glo kinase assay), MNK1. The note with it: 10 nM recombinant MNK1, 300 μM ATP. On the procedure: Compounds are screened for MNK inhibition using the ADP-Glo kinase assay kit (Promega, catalogue No. V9101). All kinase reactions are performed in Reaction Buffer E (15 mM HEPES pH7.4, 20 mM NaCl, 1 mM EGTA, 10 mM MgCl2, 0.1 mg/ml BGG, and 0.02% Tween-20). Final MNK 1 reactions contained 10 nM recombinant MNK1 (Life Technologies, PR9138A), 100 μM MNK substrate peptide Ac-TATKSGSTTKNR-NH2 (American Peptide Company), 300 μM ATP, and varying concentrations of the inhibitory compound of interest. Final MNK2 reactions contained 3 nM recombinant MNK2 (Life Technologies, PV5607), 50 μM MNK substrate peptide Ac-TATKSGSTTKNR-NH2 (American Peptide Company), 10 μM ATP, and varying concentrations of the inhibitory compound of interest. Final DMSO concentration in each reaction is 1%.
as §1
To this end, IC50 values of less than 0.01 μM are labeled as “+++”, from 0.01 to 0.1 μM are labeled as “++”, and greater than 0.1 to 10.0 μM are labeled as “+” (NA means “not available”).

Data on one compound can be found in patent publication US11014926B2, “Pyrrolo-, pyrazolo-, imidazo-pyrimidine and pyridine compounds that inhibit MNK1 and MNK2” (EFFECTOR THERAPEUTICS, INC., priority 2015, dated 2021).

Sequence of recombinant MNK1 (Q9BUB5 whole entry): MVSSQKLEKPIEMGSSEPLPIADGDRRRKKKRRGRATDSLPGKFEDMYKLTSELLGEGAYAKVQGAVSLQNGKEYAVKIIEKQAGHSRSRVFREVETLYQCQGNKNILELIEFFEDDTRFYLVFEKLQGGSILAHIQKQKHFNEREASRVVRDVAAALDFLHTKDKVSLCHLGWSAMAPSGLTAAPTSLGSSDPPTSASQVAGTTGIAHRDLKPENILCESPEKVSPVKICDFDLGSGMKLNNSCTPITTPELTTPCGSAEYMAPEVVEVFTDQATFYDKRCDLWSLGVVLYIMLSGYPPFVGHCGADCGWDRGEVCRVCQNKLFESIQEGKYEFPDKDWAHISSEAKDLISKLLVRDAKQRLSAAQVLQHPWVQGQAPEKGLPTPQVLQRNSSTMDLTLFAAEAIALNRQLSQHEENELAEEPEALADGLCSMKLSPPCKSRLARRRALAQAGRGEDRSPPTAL
Sequence of recombinant MNK2 (Q9HBH9 whole entry): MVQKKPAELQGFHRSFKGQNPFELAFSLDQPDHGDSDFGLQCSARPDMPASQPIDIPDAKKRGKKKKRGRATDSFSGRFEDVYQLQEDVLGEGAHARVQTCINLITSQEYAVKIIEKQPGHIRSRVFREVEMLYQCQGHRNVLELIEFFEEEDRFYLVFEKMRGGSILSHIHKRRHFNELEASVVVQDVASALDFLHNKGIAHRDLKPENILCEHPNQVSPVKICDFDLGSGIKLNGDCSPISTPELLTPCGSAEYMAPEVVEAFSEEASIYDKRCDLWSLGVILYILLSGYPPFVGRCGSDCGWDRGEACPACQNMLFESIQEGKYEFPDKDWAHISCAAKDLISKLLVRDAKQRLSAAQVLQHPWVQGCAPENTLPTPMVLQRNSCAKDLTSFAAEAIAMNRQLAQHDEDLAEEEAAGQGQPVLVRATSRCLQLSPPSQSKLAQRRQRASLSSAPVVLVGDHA

For `Cc1cc(-n2ccc3cncnc32)cc2c1C(=O)NC2C` (stereo not drawn) [Cpd. No. 22, 3,7-dimethyl-5-(7H-pyrrolo[2,3-d]pyrimidin-7-yl)isoindolin-1-one], the IC50 was 10 to 100 nM in test [1], 1000 to 100000 nM in test [2] and 10 to 100 nM in test [3].
